Source: ChEMBL document CHEMBL1201862, “PubChem BioAssay data set” (2004)
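Five concentrations, 48 hours, 96-well plates. Abbreviation: GI50, concentration required for 50% inhibition of growth.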 Active and inactive are the calls of the source. No stated cut-off is given here; in the data, active = GI50 up to about 1.1 µM and inactive = higher.

Columns and labels:
Experiment in all cases: inhibition of tumour cell growth, NCI panel, 48 h
[1] = system: SK-MEL-28
[2] = system: RXF 393
[3] = system: NCI-H522
[4] = system: SR
[5] = system: OVCAR-8
[6] = system: Malme-3M
[7] = system: SF-295
[8] = system: UACC-257
[9] = system: MDA-N
[10] = system: HOP-62
[11] = system: DU-145
[12] = system: NCI-H23
[13] = system: MDA-MB-435
[14] = system: SF-268
[15] = system: SNB-75
[16] = system: HL-60
[17] = system: HCT-116
[18] = system: CAKI-1
[19] = system: HCC 2998
[20] = system: PC-3

Measured: GI50

COc1cccc(Cc2cc(=O)c3ccc(C)nc3[nH]2)c1
inactive: [1] > 100 µM | [2] > 100 µM | [3] 13.2 µM | [4] 35.8 µM | [5] > 100 µM | [6] 57.7 µM | [7] > 100 µM | [8] > 100 µM | [9] > 100 µM | [10] > 100 µM | [11] > 100 µM | [12] > 100 µM | [13] > 100 µM | [14] > 100 µM | [15] 93.8 µM | [16] 55.5 µM | [17] > 100 µM | [18] > 100 µM

COc1cc(C(=O)O[C@H]2CCC3CCC2N3C)cc(OC)c1OC (stereo partly specified)
inactive: [1] > 100 µM | [19] > 100 µM | [2] > 100 µM | [4] > 100 µM | [5] > 100 µM | [6] > 100 µM | [7] > 100 µM | [8] > 100 µM | [10] > 100 µM | [11] > 100 µM | [12] > 100 µM | [13] > 100 µM | [14] > 100 µM | [15] 58.9 µM | [16] 63.7 µM | [17] > 100 µM

C/C(=C\CO)CC/C=C(\C)CNc1c(F)c(F)c(F)c(F)c1F
inactive: [1] 20.5 µM | [19] 24.7 µM | [2] 24.8 µM | [3] 18.4 µM | [4] 28.3 µM | [20] 21.1 µM | [5] 19.8 µM | [6] 27.4 µM | [7] 22.4 µM | [8] 21.3 µM | [10] 24.7 µM | [11] 43.6 µM | [12] > 100 µM | [13] 22.9 µM | [14] 23.1 µM | [15] 28.1 µM | [16] 28.7 µM | [17] 50.8 µM | [18] 33.3 µM

COc1cccc(-c2cc(O)c3cc(NC(C)=O)ccc3n2)c1
inactive: [1] 33.2 µM | [19] > 100 µM | [3] 5.11 µM | [4] 2.34 µM | [20] 23.7 µM | [5] 25.6 µM | [6] 5.05 µM | [8] > 100 µM | [10] 32.4 µM | [12] 26.8 µM | [13] 3.8 µM | [14] 6.3 µM | [18] 62.1 µM

Oc1ccc(Oc2cc3c(cc2Oc2ccc(O)cc2)-c2nc-3nc3[nH]c(nc4nc(nc5[nH]c(n2)c2cc(Oc6ccc(O)cc6)c(Oc6ccc(O)cc6)cc52)-c2cc(Oc5ccc(O)cc5)c(Oc5ccc(O)cc5)cc2-4)c2cc(Oc4ccc(O)cc4)c(Oc4ccc(O)cc4)cc32)cc1
inactive: [1] > 100 µM | [19] > 100 µM | [3] > 100 µM | [4] > 100 µM | [20] > 100 µM | [5] > 100 µM | [6] 19.1 µM | [7] 37.8 µM | [8] > 100 µM | [9] > 100 µM | [10] > 100 µM | [12] > 100 µM | [13] > 100 µM | [14] > 100 µM | [15] > 100 µM | [17] > 100 µM | [18] > 100 µM

CC(=O)C1=C(N=[N+]=[N-])c2cccc3cccc(c23)C1=O
inactive: [19] 17.6 µM | [2] 11.4 µM | [3] 14.2 µM | [20] 19.8 µM | [5] 23.6 µM | [6] 17.3 µM | [7] 22.5 µM | [8] 17.9 µM | [9] 18.9 µM | [10] 14.8 µM | [12] 20 µM | [13] 20.6 µM | [14] 25.2 µM | [15] 21.8 µM | [17] 16 µM | [18] 15.3 µM

CCOC(=O)N(c1ccccc1)c1cc(=O)n2ccccc2n1
inactive: [1] > 100 µM | [19] > 100 µM | [2] 38.9 µM | [4] > 100 µM | [5] > 100 µM | [6] > 100 µM | [7] > 100 µM | [8] > 100 µM | [10] > 100 µM | [11] > 100 µM | [12] > 100 µM | [13] > 100 µM | [14] > 100 µM | [15] > 100 µM | [16] > 100 µM | [17] > 100 µM | [18] > 100 µM

O=C(NCP(=O)(Oc1ccccc1)Oc1ccccc1)OCc1ccccc1
inactive: [1] > 100 µM | [3] 83.6 µM | [4] > 100 µM | [20] 43.9 µM | [5] > 100 µM | [6] 77.6 µM | [7] 42.2 µM | [8] > 100 µM | [10] 39.8 µM | [12] > 100 µM | [13] > 100 µM | [14] > 100 µM | [15] 32 µM | [16] > 100 µM | [18] > 100 µM

COc1cc(NC(C)CCCN)c2nccc(C)c2c1 (stereo unspecified)
inactive: [1] 19.5 µM | [19] 19.9 µM | [3] 17.5 µM | [4] 19.7 µM | [6] 20 µM | [7] 15.3 µM | [9] 18.9 µM | [10] 17.1 µM | [11] 48.3 µM | [12] 38 µM | [13] 16.7 µM | [14] 24.3 µM | [15] 14.2 µM | [16] 2.81 µM | [17] 15.8 µM | [18] 21.2 µM

CC(C)(C)[Si](C)(C)OCCC1CC2(S(=O)(=O)C3=CC=C=C=C3)ON1CC2S(=O)(=O)c1ccccc1 (stereo unspecified)
inactive: [1] > 10 µM | [19] > 10 µM | [2] > 10 µM | [5] > 10 µM | [7] > 10 µM | [8] > 10 µM | [9] > 10 µM | [10] > 10 µM | [11] > 10 µM | [12] > 10 µM | [13] > 10 µM | [14] > 10 µM | [15] > 10 µM | [17] > 10 µM

C#CCNC(=O)NCCCC(NC(C)=O)C(=O)NCc1ccccc1 (stereo unspecified)
inactive: [1] > 100 µM | [19] > 100 µM | [2] > 100 µM | [3] > 100 µM | [4] > 100 µM | [5] > 100 µM | [6] > 100 µM | [7] > 100 µM | [8] > 100 µM | [10] > 100 µM | [12] > 100 µM | [14] > 100 µM | [15] > 100 µM | [16] > 100 µM | [17] > 100 µM | [18] > 100 µM

c1csc(-c2csc(-c3cccs3)c2)c1
inactive: [1] > 100 µM | [19] 48.5 µM | [2] 6.1 µM | [3] 29.4 µM | [4] 23.5 µM | [20] 29.7 µM | [5] > 100 µM | [6] 51.8 µM | [7] 35.9 µM | [8] 40 µM | [10] 63.1 µM | [11] > 100 µM | [12] 24.3 µM | [13] 25.8 µM | [14] 84.5 µM | [15] 50.5 µM | [16] 37.5 µM | [17] 21.9 µM | [18] 84.3 µM
